According to PubChem BioAssay AID256 (DTP/NCI, 2004):
Values joined by “and” are separate entries in the source; they are usually repeats but may differ in a detail not shown here. Equal values may be shown once. Inconclusive results and toxic doses are left out. Rule for the calls: active = survival T/C of 150% or more; inactive = T/C below 125% in these data.

Tested on: CD2F1 mice, L1210 leukemia ip, survival T/C
Experiment: NCI In Vivo Anticancer Drug Screen. Data for tumor model L1210 Leukemia (intraperitoneal) in CD2F1 (CDF1) mice
Conditions: higher = longer survival
Summary of the method: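 Transplantable tumor in mice; compound-treated vs vehicle-treated groups. Read-out = treated/control ratio of the measured endpoint.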

[1] = endpoint: mean survival time, dose: 100.0 mg/kg/injection, schedule: Q01DX009 (ip), vehicle: saline with Tween-80
[2] = endpoint: mean survival time, dose: 100.0 mg/kg/injection, schedule: Q04DX003 (ip), vehicle: saline with Tween-80
[3] = endpoint: mean survival time, dose: 200.0 mg/kg/injection, schedule: Q01DX009 (ip), vehicle: saline with Tween-80
[4] = endpoint: mean survival time, dose: 200.0 mg/kg/injection, schedule: Q04DX003 (ip), vehicle: saline with Tween-80
[5] = endpoint: mean survival time, dose: 400.0 mg/kg/injection, schedule: Q01DX009 (ip), vehicle: saline with Tween-80
[6] = endpoint: mean survival time, dose: 100.0 mg/kg/injection, schedule: Q01DX001 (ip), vehicle: saline with Tween-80
[7] = endpoint: mean survival time, dose: 100.0 mg/kg/injection, schedule: Q04DX002 (ip), vehicle: saline with Tween-80
[8] = endpoint: mean survival time, dose: 200.0 mg/kg/injection, schedule: Q01DX001 (ip), vehicle: saline with Tween-80
[9] = endpoint: mean survival time, dose: 200.0 mg/kg/injection, schedule: Q04DX002 (ip), vehicle: saline with Tween-80
[10] = endpoint: mean survival time, dose: 400.0 mg/kg/injection, schedule: Q01DX001 (ip), vehicle: saline with Tween-80
[11] = endpoint: mean survival time, dose: 400.0 mg/kg/injection, schedule: Q04DX002 (ip), vehicle: saline with Tween-80
[12] = endpoint: mean survival time, dose: 400.0 mg/kg/injection, schedule: Q04DX003 (ip), vehicle: saline with Tween-80
[13] = endpoint: mean survival time, dose: 50.0 mg/kg/injection, schedule: Q04DX002 (ip), vehicle: saline with Tween-80

Measured: T/C

CCOC(=O)c1ccc(OC(=O)Nc2ccc(Cl)cc2)cc1
inactive: [1] 96 % of control | [2] 94 % of control | [3] 102 % of control | [4] 94 % of control | [5] 100 % of control

COc1cc([N+](=O)[O-])ccc1NC(=O)NCCc1ccccc1
inactive: [6] 86 % of control and 97 % of control | [1] 90 % of control and 91 % of control | [7] 95 % of control | [2] 89 % of control | [8] 86 % of control and 91 % of control | [3] 91 % of control and 103 % of control | [9] 95 % of control | [4] 91 % of control | [10] 91 % of control | [5] 90 % of control and 91 % of control | [11] 90 % of control | [12] 89 % of control

COc1cccc2c1C(=O)c1c(O)c3c(c(O)c1C2=O)C[C@@](O)(/C(CO)=N/NC(=O)c1ccc(Cl)c(Cl)c1)C[C@@H]3OC1CC(N)C(O)C(C)O1 (some centres not stated)
inactive: endpoint: mean survival time, dose: 1.0 mg/kg/injection, schedule: Q01DX009 (ip), vehicle: water 86 % of control | endpoint: mean survival time, dose: 2.0 mg/kg/injection, schedule: Q01DX009 (ip), vehicle: water 116 % of control and 89 % of control | endpoint: mean survival time, dose: 4.0 mg/kg/injection, schedule: Q01DX009 (ip), vehicle: water 92 % of control | endpoint: mean survival time, dose: 8.0 mg/kg/injection, schedule: Q01DX009 (ip), vehicle: water 92 % of control | endpoint: mean survival time, dose: 32.0 mg/kg/injection, schedule: Q01DX009 (ip), vehicle: water 113 % of control and 111 % of control
252 % of control and 97 % of control: endpoint: mean survival time, dose: 16.0 mg/kg/injection, schedule: Q01DX009 (ip), vehicle: water

C=C(Br)CNC(=O)OC
inactive: endpoint: mean survival time, dose: 12.5 mg/kg/injection, schedule: Q01DX009 (ip), vehicle: saline 102 % of control | endpoint: mean survival time, dose: 25.0 mg/kg/injection, schedule: Q01DX009 (ip), vehicle: saline 104 % of control | endpoint: mean survival time, dose: 50.0 mg/kg/injection, schedule: Q01DX009 (ip), vehicle: saline 112 % of control | [2] 96 % of control

O=C(C(=C(c1ccccc1)c1ccccc1)N1CCCCC1)c1ccccc1
inactive: endpoint: mean survival time, dose: 100.0 mg/kg/injection, schedule: Q04DX003 (ip), vehicle: Klucel (hydroxypropylcellulose) (HPC) 94 % of control | endpoint: mean survival time, dose: 200.0 mg/kg/injection, schedule: Q04DX003 (ip), vehicle: Klucel (hydroxypropylcellulose) (HPC) 96 % of control | endpoint: mean survival time, dose: 400.0 mg/kg/injection, schedule: Q04DX003 (ip), vehicle: Klucel (hydroxypropylcellulose) (HPC) 94 % of control

COc1ccc2c(O)c(C)c(=O)n(C)c2c1
inactive: [7] 96 % of control | [9] 96 % of control | [11] 93 % of control

CC1CCOC(c2ccccc2)O1 (configuration not stated)
inactive: [13] 102 % of control | [7] 94 % of control | [9] 97 % of control

C=C1C(C)C2C(Cc3ccccc3)NC(=O)C23C(OC(C)=O)/C=C/C(C)(O)CC(C)C/C=C/C3C1O (configuration not stated)
inactive: endpoint: mean survival time, dose: 0.37 mg/kg/injection, schedule: Q01DX009 (ip), vehicle: Klucel (hydroxypropylcellulose) (HPC) 95 % of control | endpoint: mean survival time, dose: 0.75 mg/kg/injection, schedule: Q01DX009 (ip), vehicle: Klucel (hydroxypropylcellulose) (HPC) 100 % of control | endpoint: mean survival time, dose: 1.5 mg/kg/injection, schedule: Q01DX009 (ip), vehicle: Klucel (hydroxypropylcellulose) (HPC) 96 % of control | endpoint: mean survival time, dose: 3.0 mg/kg/injection, schedule: Q01DX009 (ip), vehicle: Klucel (hydroxypropylcellulose) (HPC) 96 % of control | endpoint: mean survival time, dose: 6.0 mg/kg/injection, schedule: Q01DX009 (ip), vehicle: Klucel (hydroxypropylcellulose) (HPC) 105 % of control | endpoint: mean survival time, dose: 12.0 mg/kg/injection, schedule: Q01DX009 (ip), vehicle: Klucel (hydroxypropylcellulose) (HPC) 105 % of control | endpoint: mean survival time, dose: 375.0 micrograms/kg/injection, schedule: Q01DX009 (ip), vehicle: Klucel (hydroxypropylcellulose) (HPC) 106 % of control | endpoint: mean survival time, dose: 750.0 micrograms/kg/injection, schedule: Q01DX009 (ip), vehicle: Klucel (hydroxypropylcellulose) (HPC) 96 % of control | endpoint: mean survival time, dose: 1500.0 micrograms/kg/injection, schedule: Q01DX009 (ip), vehicle: Klucel (hydroxypropylcellulose) (HPC) 104 % of control | endpoint: mean survival time, dose: 3000.0 micrograms/kg/injection, schedule: Q01DX009 (ip), vehicle: Klucel (hydroxypropylcellulose) (HPC) 101 % of control | endpoint: mean survival time, dose: 6000.0 micrograms/kg/injection, schedule: Q01DX009 (ip), vehicle: Klucel (hydroxypropylcellulose) (HPC) 96 % of control

O=C(CC(NC(=O)OCc1ccccc1)c1nn[nH]n1)OCc1ccccc1 (configuration not stated)
inactive: [2] 86 % of control | [4] 94 % of control | [12] 91 % of control

O=[N+]([O-])C(Br)(CO)CO
inactive: endpoint: mean survival time, dose: 4.7 mg/kg/injection, schedule: Q01DX009 (ip), vehicle: saline 101 % of control | endpoint: mean survival time, dose: 4.7 mg/kg/injection, schedule: Q04DX003 (ip), vehicle: saline 98 % of control | endpoint: mean survival time, dose: 9.4 mg/kg/injection, schedule: Q01DX009 (ip), vehicle: saline 101 % of control | endpoint: mean survival time, dose: 9.4 mg/kg/injection, schedule: Q04DX003 (ip), vehicle: saline 96 % of control | endpoint: mean survival time, dose: 18.8 mg/kg/injection, schedule: Q01DX001 (ip), vehicle: saline 102 % of control | endpoint: mean survival time, dose: 18.8 mg/kg/injection, schedule: Q01DX009 (ip), vehicle: saline 95 % of control | endpoint: mean survival time, dose: 18.8 mg/kg/injection, schedule: Q04DX003 (ip), vehicle: saline 105 % of control

CC1=CC(=C2C=C(C)C(=O)C(C)=C2)C=C(C)C1=O
inactive: endpoint: mean survival time, dose: 50.0 mg/kg/injection, schedule: Q01DX001 (ip), vehicle: saline with Tween-80 87 % of control | [6] 87 % of control | [8] 91 % of control

O=C(NCc1ccccc1)C(=O)NCc1ccccc1
inactive: [7] 90 % of control | [9] 87 % of control | [11] 90 % of control

C(=C\c1cc[n+](CCc2ccccc2)cc1)/c1ccccc1
inactive: endpoint: mean survival time, dose: 6.25 mg/kg/injection, schedule: Q01DX009 (ip), vehicle: saline with Tween-80 104 % of control | endpoint: mean survival time, dose: 12.5 mg/kg/injection, schedule: Q01DX009 (ip), vehicle: saline with Tween-80 98 % of control | endpoint: mean survival time, dose: 25.0 mg/kg/injection, schedule: Q01DX009 (ip), vehicle: saline with Tween-80 108 % of control

NNS(=O)(=O)c1ccc(Oc2ccc(S(=O)(=O)NN)cc2)cc1
inactive: endpoint: mean survival time, dose: 50.0 mg/kg/injection, schedule: Q01DX009 (ip), vehicle: Klucel (hydroxypropylcellulose) (HPC) 101 % of control | endpoint: mean survival time, dose: 100.0 mg/kg/injection, schedule: Q01DX009 (ip), vehicle: Klucel (hydroxypropylcellulose) (HPC) 96 % of control | endpoint: mean survival time, dose: 200.0 mg/kg/injection, schedule: Q01DX009 (ip), vehicle: Klucel (hydroxypropylcellulose) (HPC) 108 % of control

CNC(=O)Nc1cccc(OS(=O)(=O)N(C)C)c1
inactive: [1] 92 % of control | [3] 95 % of control | [5] 95 % of control

CC(C)(C[P+](C)(c1ccccc1)c1ccccc1)c1ccccc1
inactive: [13] 98 % of control | [7] 102 % of control

NC(CSS(=O)(=O)O)=NCc1cccs1
inactive: endpoint: mean survival time, dose: 25.0 mg/kg/injection, schedule: Q04DX002 (ip), vehicle: saline with Tween-80 95 % of control | [13] 115 % of control

O=C(COc1ccc(Cl)cc1C(=O)O)NCc1cccc(NC(=O)Nc2cccc(S(=O)(=O)F)c2)c1
inactive: [6] 91 % of control | [8] 93 % of control | [10] 88 % of control

CCCCOC(=O)c1ccccc1C(=O)O.CCCCOC(=O)c1ccccc1C(=O)O.[Cu+2]
inactive: endpoint: mean survival time, dose: 6.25 mg/kg/injection, schedule: Q04DX003 (ip), vehicle: saline with Tween-80 91 % of control | endpoint: mean survival time, dose: 12.5 mg/kg/injection, schedule: Q04DX003 (ip), vehicle: saline with Tween-80 95 % of control | endpoint: mean survival time, dose: 25.0 mg/kg/injection, schedule: Q04DX003 (ip), vehicle: saline with Tween-80 93 % of control

N/C(=N\O)c1ncnc2c1ncn2C1OC(CO)C(O)C1O (configuration not stated)
inactive: endpoint: median survival time, dose: 6.25 mg/kg/injection, schedule: Q01DX005 (ip), vehicle: distilled water + Tween-80 107 % of control | endpoint: median survival time, dose: 12.5 mg/kg/injection, schedule: Q01DX005 (ip), vehicle: distilled water + Tween-80 115 % of control | endpoint: median survival time, dose: 25.0 mg/kg/injection, schedule: Q01DX005 (ip), vehicle: distilled water + Tween-80 108 % of control | endpoint: median survival time, dose: 50.0 mg/kg/injection, schedule: Q01DX005 (ip), vehicle: distilled water + Tween-80 111 % of control | endpoint: median survival time, dose: 100.0 mg/kg/injection, schedule: Q01DX005 (ip), vehicle: distilled water + Tween-80 111 % of control
